In ChEMBL document CHEMBL1158951, “Additional bioactive heptenes from Melodorum fruticosum” (1991):
Values after ≈ are worked out from the molar mass of the structure shown.

What was measured:
Type in all cases: functional
Conditions in all cases: read-out: ED50 (the source's name)
HT-29 = assay: Cytotoxicity against human HT-29 cells
A549 = assay: Cytotoxicity against human A549 cells
Malme-3M = assay: Cytotoxicity against human MALME-3M cells
SK-MEL-5 = assay: Cytotoxicity against human SK-MEL-5 cells
MCF7 = assay: Cytotoxicity against human MCF7 cells

Compound	EC50 (HT-29)	EC50 (A549)	EC50 (Malme-3M)	EC50 (SK-MEL-5)	EC50 (MCF7)
O=C1C=C/C(=C/C(O)COC(=O)c2ccccc2)O1 (stereo unspecified) [MELODORINOL]	2.87 µg/mL (≈ 11 µM)	5.89 µg/mL (≈ 22.6 µM)	3.32 µg/mL (≈ 12.8 µM)	3.75 µg/mL (≈ 14.4 µM)	1.99 µg/mL (≈ 7.65 µM)
COC(=O)/C=C/C(=O)CC(O)COC(=O)c1ccccc1 (stereo unspecified)	0.253 µg/mL (≈ 0.866 µM)	3.28 µg/mL (≈ 11.2 µM)	1.1 µg/mL (≈ 3.76 µM)	1.04 µg/mL (≈ 3.56 µM)	1.92 µg/mL (≈ 6.57 µM)
CC(=O)OC(/C=C1/C=CC(=O)O1)COC(=O)c1ccccc1 (stereo unspecified) [ACETYLMELODORINOL]	2.38 µg/mL (≈ 7.87 µM)	2.89 µg/mL (≈ 9.56 µM)	2.74 µg/mL (≈ 9.06 µM)	4.21 µg/mL (≈ 13.9 µM)	1.96 µg/mL (≈ 6.48 µM)
CCOC(=O)/C=C\C(=O)/C=C/COC(=O)c1ccccc1 [HOMOISOMELODIENONE]	36.3 µg/mL (≈ 126 µM)	6.7 µg/mL (≈ 23.2 µM)			4.26 µg/mL (≈ 14.8 µM)
CCOC(=O)/C=C/C(=O)/C=C/COC(=O)c1ccccc1 [HOMOMELODIENONE]	37.9 µg/mL (≈ 131 µM)	36.9 µg/mL (≈ 128 µM)			25.6 µg/mL (≈ 88.8 µM)
